# Data as given in US20240124439A1, “Pyrido[2,3-D]Imidazole Derivatives and Their Use As Inhibitors of ITK for the Treatment of Skin Disease” (Pfizer Inc., priority 2020, published 2024).
# pIC50: −log10 of the molar value.
# Assays:
# [1] = molecular target: IL-2-Inducible T-Cell Kinase (ITK) (Homo sapiens (Human), UniProt Q08881); test: ITK enzyme assay (IL-2-inducible T-cell kinase activity); format: biochemical; conditions: geometric mean of count n
# In short: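 Full-length N-Flag/C-His human ITK, pre-incubated 30 min at RT with compound. Reaction in HEPES pH 7.5 buffer with MgCl2, glutathione, gelatin and Brij-35, started with BTK peptide substrate, 60 min at RT. EDTA stop, PT66/APC TR-FRET detection overnight; IC50 fitted by four-parameter logistic.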
# [2] = test system: activated CD4+ human T-cells (IL-2); test: IL-2 inhibition in supernatants from activated CD4+ human T-cells (cisbio HTRF); format: cell-based; conditions: CD3/CD28-activated CD4+ human T cells, ImmunoCult stimulation 20 to 24 hrs, geometric mean of count n
# In short: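 Primary human CD4+ T cells activated with CD3/CD28 for 3 days and expanded to 7-9 days total, plated at 30,000 cells/well. Cells preincubated 15 min with compound, then stimulated with ImmunoCult (1:50 final) for 20-24 h at 37° C. Supernatant IL-2 measured by HTRF (665/615 nm); IC50 from four-parameter logistic fit.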
# [3] = molecular target: Tropomyosin Receptor Kinase A (TRKA), NTRK1 enzyme (Homo sapiens (Human), UniProt P04629); test: TRKA (NTRK1) ThermoFisher Z'-LYTE enzyme assay; format: biochemical; conditions: test compound 1 uM, ATP 1 mM; arithmetic mean of count n
# Tropomyosin Receptor Kinase A (TRKA), NTRK1 enzyme, sequence (P04629 33-796): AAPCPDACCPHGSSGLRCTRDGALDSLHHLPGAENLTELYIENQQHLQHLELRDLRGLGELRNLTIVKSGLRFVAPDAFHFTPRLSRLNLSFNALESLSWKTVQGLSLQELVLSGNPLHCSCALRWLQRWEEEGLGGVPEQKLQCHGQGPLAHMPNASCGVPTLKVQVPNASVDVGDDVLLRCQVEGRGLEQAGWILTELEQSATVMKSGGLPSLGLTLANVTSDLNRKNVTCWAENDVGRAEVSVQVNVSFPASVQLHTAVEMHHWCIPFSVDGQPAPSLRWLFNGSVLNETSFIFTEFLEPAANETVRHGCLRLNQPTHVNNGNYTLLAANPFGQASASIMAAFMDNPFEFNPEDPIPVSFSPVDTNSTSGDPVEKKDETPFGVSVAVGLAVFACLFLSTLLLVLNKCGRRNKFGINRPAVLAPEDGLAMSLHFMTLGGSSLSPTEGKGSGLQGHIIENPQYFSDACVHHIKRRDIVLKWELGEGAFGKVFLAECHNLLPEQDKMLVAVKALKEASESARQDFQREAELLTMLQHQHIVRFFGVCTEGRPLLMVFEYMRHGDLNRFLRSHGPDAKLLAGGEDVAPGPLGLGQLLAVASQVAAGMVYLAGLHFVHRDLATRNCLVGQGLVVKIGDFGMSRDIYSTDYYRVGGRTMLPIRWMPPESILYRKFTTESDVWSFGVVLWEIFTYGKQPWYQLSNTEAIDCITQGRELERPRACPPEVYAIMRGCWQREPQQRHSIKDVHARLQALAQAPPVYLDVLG
# Description: TRKA, also known as neurotrophic tyrosine kinase receptor type 1 (NTKR1) activity was determined by measuring the effect of a test compound on the activity against the NTRK1 enzyme using the ThermoFisher Z′-LYTE Assay fluorescence-based coupled enzyme format (www.thermofisher.com/selectscreen). Test compounds were screened at a fixed concentration of 1 uM and the % inhibition was determined compared to controls at a fixed ATP concentration of 1 mM. The resulting effect value for the tested compound was compared to the assay controls to determine the % inhibition (%).
# IL-2-Inducible T-Cell Kinase (ITK), sequence (Q08881 whole entry): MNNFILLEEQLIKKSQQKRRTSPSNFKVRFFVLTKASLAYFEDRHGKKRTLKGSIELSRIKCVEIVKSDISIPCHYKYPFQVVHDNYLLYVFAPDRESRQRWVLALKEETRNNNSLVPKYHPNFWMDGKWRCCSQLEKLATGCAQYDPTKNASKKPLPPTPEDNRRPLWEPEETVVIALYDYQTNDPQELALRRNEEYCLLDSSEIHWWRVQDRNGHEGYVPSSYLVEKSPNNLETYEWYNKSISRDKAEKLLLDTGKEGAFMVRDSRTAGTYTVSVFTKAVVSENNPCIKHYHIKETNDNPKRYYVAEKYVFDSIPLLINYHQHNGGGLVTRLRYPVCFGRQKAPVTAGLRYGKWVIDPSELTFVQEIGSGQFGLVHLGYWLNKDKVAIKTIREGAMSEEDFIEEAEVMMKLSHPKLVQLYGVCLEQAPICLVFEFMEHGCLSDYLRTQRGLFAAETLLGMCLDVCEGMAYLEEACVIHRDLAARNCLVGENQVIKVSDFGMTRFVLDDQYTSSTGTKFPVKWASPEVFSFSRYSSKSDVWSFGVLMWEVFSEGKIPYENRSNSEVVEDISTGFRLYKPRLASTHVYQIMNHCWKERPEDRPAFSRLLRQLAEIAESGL
Compound,pIC50 [1],pIC50 ([2]; T-cell),inhibition at 1 µM [3],pIC50 [2],TRKA % inhibition [3]
"C[C@H](C(=O)N(C)c1cnc2[nH]c(-c3n[nH]c4c3C[C@@H]3C[C@]3(C)C4)nc2c1)C1CCOCC1 [Example 10, (S)-N-Methyl-N-(2-((4aS,5aR)-5a-methyl-1,4,4a,5,5a,6-hexahydrocyclopropa[f]indazol-3-yl)-3H-imidazo[4,5-b]pyridin-6-yl)-2-(tetrahydro-2H-pyran-4-yl)propanamide]",7.04,6.47,98%,,
"CCN(C(=O)[C@H](C)C1CCOCC1)c1cnc2[nH]c(-c3n[nH]c4c3C[C@@H]3C[C@]3(C)C4)nc2c1 [Example 19, (R)-N-Ethyl-N-(2-((4aS,5aR)-5a-methyl-1,4,4a,5,5a,6-hexahydrocyclopropa[f]indazol-3-yl)-3H-imidazo[4,5-b]pyridin-6-yl)-2-(tetrahydro-2H-pyran-4-yl)propenamide]",7.77,,,6.82,98%
"CCN(C(=O)[C@@H](C)N1CCOCC1)c1cnc2[nH]c(-c3n[nH]c4c3CCC(C)(C)C4)nc2c1 [Example 22, (R)-N-(2-(6,6-Dimethyl-4,5,6,7-tetrahydro-1H-indazol-3-yl)-3H-imidazo[4,5-b]pyridin-6-yl)-N-ethyl-2-morpholinopropanamide]",7.07,6.33,94%,,
"C[C@@H](C(=O)N(C)c1cnc2[nH]c(-c3n[nH]c4c3C[C@@H]3C(F)(F)[C@]3(C)C4)nc2c1)N1CCOCC1 [Example 23, (S)-N-(2-((4aS,5aR)-5,5-Difluoro-5a-methyl-1,4,4a,5,5a,6-hexahydrocyclopropa[f]indazol-3-yl)-3H-imidazo[4,5-b]pyridin-6-yl)-N-methyl-2-morpholinopropanamide]",5.88,5.73,54%,,
"C[C@H](C(=O)N(C)c1cnc2[nH]c(-c3n[nH]c4c3C[C@@H]3C[C@]3(C)C4)nc2c1)N1CCOCC1 [Example 26, (R)-N-Methyl-N-(2-((4aS,5aR)-5a-methyl-1,4,4a,5,5a,6-hexahydrocyclopropa[f]indazol-3-yl)-3H-imidazo[4,5-b]pyridin-6-yl)-2-morpholinopropanamide]",,6.20,91%,,
"C[C@@H](C(=O)N(C)c1cnc2[nH]c(-c3n[nH]c4c3C[C@H]3C[C@@]3(C)C4)nc2c1)N1CCOCC1 [Example 29, (2S)-N-Methyl-N-(2-(5a-methyl-1,4,4a,5,5a,6-hexahydrocyclopropa[f]indazol-3-yl)-3H-imidazo[4,5-b]pyridin-6-yl)-2-morpholinopropanamide]",5.55,5.60,69%,,
"C[C@@H](C(=O)N(CCO)c1cnc2[nH]c(-c3n[nH]c4c3C[C@@H]3C[C@]3(C)C4)nc2c1)C1CCOCC1 [Example 31, (R)-N-(2-Hydroxyethyl)-N-(2-((4aS,5aR)-5a-methyl-1,4,4a,5,5a,6-hexahydrocyclopropa[f]indazol-3-yl)-3H-imidazo[4,5-b]pyridin-6-yl)-2-(tetrahydro-2H-pyran-4-yl)propenamide]",7.60,6.38,95%,,
"CN(C(=O)CN1CCCOC1=O)c1cnc2nc(-c3n[nH]c4c3C[C@@H]3C[C@]3(C)C4)[nH]c2c1 [Example 57, N-Methyl-N-(2-((4aS,5aR)-5a-methyl-1,4,4a,5,5a,6-hexahydrocyclopropa[f]indazol-3-yl)-1H-imidazo[4,5-b]pyridin-6-yl)-2-(2-oxo-1,3-oxazinan-3-yl)acetamide]",7.44,6.01,106%,,
"CN(C(=O)CN1CCOCC1)c1cnc2nc(-c3n[nH]c4c3C[C@@H]3C[C@]3(C)C4)[nH]c2c1 [Example 58, N-Methyl-N-(2-((4aS,5aR)-5a-methyl-1,4,4a,5,5a,6-hexahydrocyclopropa[f]indazol-3-yl)-1H-imidazo[4,5-b]pyridin-6-yl)-2-morpholinoacetamide]",6.99,6.42,108%,,

# Continued by rising pIC50 ([2]; T-cell), values first:
pIC50 [1],pIC50 ([2]; T-cell),inhibition at 1 µM [3],pIC50 [2],TRKA % inhibition [3],Compound
7.39,6.51,96%,,,"C[C@@H](C(=O)N(C)c1cc2[nH]c(-c3n[nH]c4c3C[C@@H]3C[C@]3(C)C4)nc2nc1F)N1CCOCC1 [Example 17, (S)-N-(5-Fluoro-2-((4aS,5aR)-5a-methyl-1,4,4a,5,5a,6-hexahydrocyclopropa[f]indazol-3-yl)-1H-imidazo[4,5-b]pyridin-6-yl)-N-methyl-2-morpholinopropanamide]"
7.36,6.72,95%,,,"CN(C(=O)CC1CCCCC1)c1cnc2nc(-c3n[nH]c4c3C[C@@H]3C[C@]3(C)C4)[nH]c2c1 [Example 47, 2-Cyclohexyl-N-methyl-N-(2-((4aS,5aR)-5a-methyl-1,4,4a,5,5a,6-hexahydrocyclopropa[f]indazol-3-yl)-1H-imidazo[4,5-b]pyridin-6-yl)acetamide]"
7.55,6.74,97%,,,"COCCOc1nc2[nH]c(-c3n[nH]c4c3C[C@@H]3C[C@]3(C)C4)nc2cc1N(C)C(=O)[C@H](C)N1CCOCC1 [Example 40, (S)-N-(5-(2-Methoxyethoxy)-2-((4aS,5aR)-5a-methyl-1,4,4a,5,5a,6-hexahydrocyclopropa[f]indazol-3-yl)-3H-imidazo[4,5-b]pyridin-6-yl)-N-methyl-2-morpholinopropanamide]"
7.33,6.76,95%,,,"COc1nc2[nH]c(-c3n[nH]c4c3C[C@@H]3C[C@]3(C)C4)nc2cc1N(C)C(=O)[C@H](C)N1CCOCC1 [Example 36, (S)-N-(5-Methoxy-2-((4aS,5aR)-5a-methyl-1,4,4a,5,5a,6-hexahydrocyclopropa[f]indazol-3-yl)-3H-imidazo[4,5-b]pyridin-6-yl)-N-methyl-2-morpholinopropanamide]"
7.77,6.78,94%,,,"C[C@@H](C(=O)N(C)c1cnc2[nH]c(-c3n[nH]c4c3CCC(C)(C)C4)nc2c1)C1CCOCC1 [Example 32, (R)-N-(2-(6,6-Dimethyl-4,5,6,7-tetrahydro-1H-indazol-3-yl)-3H-imidazo[4,5-b]pyridin-6-yl)-N-methyl-2-(tetrahydro-2H-pyran-4-yl)propenamide]"
,6.79,97%,,,CCN(C(=O)[C@H](C)C1CCOCC1)c1cnc2[nH]c(-c3n[nH]c4c3CCC(C)(C)C4)nc2c1 [Example 18]
,6.80,92%,,,"C[C@@H](C(=O)N(C)c1cnc2[nH]c(-c3n[nH]c4c3CCC(C)(C)C4)nc2c1)N1CCOCC1 [Example 14, (S)-N-(2-(6,6-Dimethyl-4,5,6,7-tetrahydro-1H-indazol-3-yl)-3H-imidazo[4,5-b]pyridin-6-yl)-N-methyl-2-morpholinopropanamide]"
7.64,6.92,91%,,,"C[C@@H](C(=O)N(C)c1cnc2[nH]c(-c3n[nH]c4c3C[C@@H]3C[C@]3(C)C4)nc2c1)N1CCOCC1 [Example 28, (S)-N-Methyl-N-(2-((4aS,5aR)-5a-methyl-1,4,4a,5,5a,6-hexahydrocyclopropa[f]indazol-3-yl)-3H-imidazo[4,5-b]pyridin-6-yl)-2-morpholinopropanamide]"
7.85,7.04,108%,,,"CN(C(=O)C(F)(F)C1CCOCC1)c1cnc2[nH]c(-c3n[nH]c4c3C[C@@H]3C[C@]3(C)C4)nc2c1 [Example 2, 2,2-Difluoro-N-methyl-N-(2-((4aS,5aR)-5a-methyl-1,4,4a,5,5a,6-hexahydrocyclopropa[f]indazol-3-yl)-3H-imidazo[4,5-b]pyridin-6-yl)-2-(tetrahydro-2H-pyran-4-yl)acetamide]"
8.10,7.10,97%,,,"CCN(C(=O)[C@H](C)N1CCOCC1)c1cnc2[nH]c(-c3n[nH]c4c3C[C@@H]3C(F)(F)[C@]3(C)C4)nc2c1 [Example 30, (S)-N-(2-((4aS,5aR)-5,5-Difluoro-5a-methyl-1,4,4a,5,5a,6-hexahydrocyclopropa[f]indazol-3-yl)-3H-imidazo[4,5-b]pyridin-6-yl)-N-ethyl-2-morpholinopropanamide]"
8.05,7.17,96%,,,"C[C@@H](C(=O)N(C)c1cnc2[nH]c(-c3n[nH]c4c3C[C@@H]3C[C@]3(C)C4)nc2c1)C1CCOCC1 [Example 1, (R)-N-Methyl-N-(2-((4aS,5aR)-5a-methyl-1,4,4a,5,5a,6-hexahydrocyclopropa[f]indazol-3-yl)-3H-imidazo[4,5-b]pyridin-6-yl)-2-(tetrahydro-2H-pyran-4-yl)propenamide]"
8.52,7.47,95%,,,"C[C@@H](C(=O)N(C)c1cnc2[nH]c(-c3n[nH]c4c3C[C@H]3C(F)(F)[C@@]3(C)C4)nc2c1)N1CCOCC1 [Example 24, (S)-N-(2-((4aR,5aS)-5,5-Difluoro-5a-methyl-1,4,4a,5,5a,6-hexahydrocyclopropa[f]indazol-3-yl)-3H-imidazo[4,5-b]pyridin-6-yl)-N-methyl-2-morpholinopropanamide]"
